Results taken from ChEMBL document CHEMBL1201862, “PubChem BioAssay data set” (2004).
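Test compounds were applied to cells in 96-well plates for 48 hours at 5 doses. At the GI50, growth is halved.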 Active and inactive are the calls of the source. Cut-off read from the data, not from the text of the source: active = GI50 up to about 1.1 µM and inactive = higher.

Experiments:
Test in all cases: NCI tumour cell line growth inhibition, 48 h
HL-60 = test system: HL-60
DMS-114 = test system: DMS-114
SNB-78 = test system: SNB-78
HOP-62 = test system: HOP-62
HOP-18 = test system: HOP-18
A498 = test system: A498
KM-20L2 = test system: KM-20L2
M19-MEL = test system: M19-MEL
DLD-1 = test system: DLD-1
NCI-H522 = test system: NCI-H522
786-0 = test system: 786-0
HCC 2998 = test system: HCC 2998
NCI-H460 = test system: NCI-H460
SN12C = test system: SN12C
SNB-75 = test system: SNB-75

| SMILES | GI50 (HL-60) | GI50 (DMS-114) | GI50 (SNB-78) | GI50 (HOP-62) | GI50 (HOP-18) | GI50 (A498) | GI50 (KM-20L2) | GI50 (M19-MEL) | GI50 (DLD-1) | GI50 (NCI-H522) | GI50 (786-0) | GI50 (HCC 2998) | GI50 (NCI-H460) | GI50 (SN12C) | GI50 (SNB-75) |
| --- | --- | --- | --- | --- | --- | --- | --- | --- | --- | --- | --- | --- | --- | --- | --- |
| CCOC(=O)/C=C1\Oc2ccccc2C1(C)O (stereo not drawn) | > 100 µM (inactive) | > 100 µM (inactive) | > 100 µM (inactive) | > 100 µM (inactive) | > 100 µM (inactive) | > 100 µM (inactive) | > 100 µM (inactive) | > 100 µM (inactive) | > 100 µM (inactive) | > 100 µM (inactive) | > 100 µM (inactive) | > 100 µM (inactive) | > 100 µM (inactive) | > 100 µM (inactive) | > 100 µM (inactive) |
| COc1ccc2c(c1)c(=O)c1ccccc1n2/C=C/C(=O)O | > 46.8 µM (inactive) | > 83.6 µM (inactive) | > 100 µM (inactive) | > 100 µM (inactive) | > 100 µM (inactive) | > 100 µM (inactive) | 26.7 µM (inactive) |  | > 47 µM (inactive) | > 100 µM (inactive) | > 100 µM (inactive) | > 100 µM (inactive) | > 100 µM (inactive) | > 100 µM (inactive) | > 100 µM (inactive) |
| COC(=O)C#CC(N)=O | 4.94 µM (inactive) | > 100 µM (inactive) | > 100 µM (inactive) | > 100 µM (inactive) | 53.5 µM (inactive) | > 100 µM (inactive) | > 31.6 µM (inactive) | > 64.3 µM (inactive) | > 100 µM (inactive) | > 63.1 µM (inactive) | > 59.3 µM (inactive) | > 100 µM (inactive) | > 100 µM (inactive) | > 100 µM (inactive) | 35.1 µM (inactive) |
| CC(=O)OC(C)C(=O)C1c2cccc(O)c2C(=O)c2c(O)cc(C)cc21 (stereo not drawn) | 0.308 µM (active) | 0.188 µM (active) | 0.753 µM (active) | 0.343 µM (active) | 1.12 µM (inactive) | 1.59 µM (inactive) | 1.37 µM (inactive) | 0.367 µM (active) | 1.75 µM (inactive) | 1.52 µM (inactive) | 1.09 µM (active) | 0.429 µM (active) | 0.375 µM (active) | 0.879 µM (active) | 0.52 µM (active) |
| N#Cc1ccccc1C(Cl)(Cl)c1cnccn1 | 28.6 µM (inactive) | 22.4 µM (inactive) | 46.3 µM (inactive) | 72.4 µM (inactive) | > 100 µM (inactive) | 92.7 µM (inactive) |  | 54.1 µM (inactive) | 47.3 µM (inactive) | 19.8 µM (inactive) | 14.6 µM (inactive) | 32.4 µM (inactive) | 47.4 µM (inactive) | 74.8 µM (inactive) |  |
| C#C[C@H](CCCC)OC(=O)N[C@H](C)c1ccccc1 | 17.5 µM (inactive) | 28.2 µM (inactive) | 70 µM (inactive) | > 100 µM (inactive) | > 100 µM (inactive) |  | 66.5 µM (inactive) | 30.5 µM (inactive) | 55.2 µM (inactive) | 29.2 µM (inactive) | 49.1 µM (inactive) |  | 58.2 µM (inactive) | > 100 µM (inactive) | 41.2 µM (inactive) |
| CC(=O)n1nnc2ccc([N+](=O)[O-])cc21 | > 100 µM (inactive) | > 100 µM (inactive) | > 100 µM (inactive) | > 100 µM (inactive) | 90.6 µM (inactive) |  | > 100 µM (inactive) | > 100 µM (inactive) | > 100 µM (inactive) | > 100 µM (inactive) | > 100 µM (inactive) |  | > 100 µM (inactive) | > 100 µM (inactive) | > 100 µM (inactive) |
| COC(=O)/C=c1\s/c(=C\C(=O)OC)c2ccccc12 | > 100 µM (inactive) | > 100 µM (inactive) | > 100 µM (inactive) |  | > 100 µM (inactive) | > 100 µM (inactive) | > 100 µM (inactive) | > 100 µM (inactive) | 6.28 µM (inactive) | > 100 µM (inactive) | > 100 µM (inactive) | > 100 µM (inactive) |  | > 100 µM (inactive) | 27.9 µM (inactive) |
| CC(SC1=CC(=O)c2c(O)ccc(O)c2C1=O)C(=O)O (stereo not drawn) | 13.6 µM (inactive) | 19.5 µM (inactive) | > 47.4 µM (inactive) | > 100 µM (inactive) | > 55.3 µM (inactive) | > 62.7 µM (inactive) | > 51.8 µM (inactive) |  | > 39.8 µM (inactive) | 1.51 µM (inactive) | 23.9 µM (inactive) | > 73.8 µM (inactive) | > 100 µM (inactive) | > 48.2 µM (inactive) | > 50.5 µM (inactive) |
| COc1cc(/C=C\c2cccnc2)cc(OC)c1OC | 18.9 µM (inactive) | 46.8 µM (inactive) | > 100 µM (inactive) | 37.8 µM (inactive) | > 100 µM (inactive) |  | 33.8 µM (inactive) | 76.7 µM (inactive) | 72.1 µM (inactive) | 25.3 µM (inactive) | 67.9 µM (inactive) |  | 40.8 µM (inactive) | 42.6 µM (inactive) | 58.3 µM (inactive) |
